In article PMC5531531, “A synthetic cationic antimicrobial peptide inhibits inflammatory response and the NLRP3 inflammasome by neutralizing LPS and ATP” (PLoS ONE, 2017):
No end group written: not given here.

system: LPS-induced NO generation in RAW264.7 cells; assay: NO inhibitory assay (Griess reaction), LPS-activated RAW 264.7; type: cell-based, mouse; details: E. coli LPS 0.1 μg/ml, 24 h, Griess reaction; mean of triplicate wells from at least three experiments
Protocol: RAW 264.7 cells (2 × 10^5 in 0.5 ml of medium) were seeded in 24-well plates and then incubated with or without LPS (0.1 μg/ml) in the absence or presence of AMP for 24 h. The effects of AMP on NO production were measured indirectly by analyzing nitrite levels using the Griess reaction as described in detail previously.

Sequence | ED50, effective dose of AMPs that inhibits 50% of LPS-induced NO generation in RAW264.7 cells
GAKALTKAATAFTKFYKTIW [GW-A4] | 4 µM
GAKYAKYIYNFYKYIAKYIW [GW-A1] | >8 µM
GANAAKKFATIAKKFINYLW [GW-Q4] | >8 µM
GANAAKKLATFAKKIFTAYW [GW-M1] | 4 µM
GANLAKKFYTYINKFINYAW [GW-Q3] | 7 µM
GATYAKKIIKTITKIATTAW [GW-A5] | >8 µM
GIGKFLHSAKKWGKAFVGEIMNS [Peptide M2a, Magainin 2a, reference compound] | >8 µM
GIKIAKKAITIAKKIAKIYW [GW-Q6] | 4 µM
GLTFLKKILNFAKKIYTAIW [GW-H3] | 4 µM
GWGSFFKKAAHVGKHVGKAALTHYL [Ple, Pleurocidin, reference compound] | >8 µM
GYKYYNKIYNYLNKYLKYAW [GW-H0] | 5 µM
GYNYAKKLANLAKKFANALW [GW-H1] | >8 µM
